Laboratory results as given in patent publication US9693556B2, “Herbicidal pyridazinone derivatives” (SYNGENTA LIMITED, priority 2011, dated 2017).

Assays:
Format in all cases: in vivo
[1] = test system: Alopecurus myosuroides (ALOMY); experiment: Pre-emergence herbicidal glasshouse test on Alopecurus myosuroides; conditions: pre-emergence; 1000 g/h; evaluated after 13 days
In short: (§1)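 Scoring scale: 5=80-100%, 4=60-79%, 3=40-59%, 2=20-39%, 1=0-19% damage, assessed on day 13. Compound sprayed at 1000 g/h on soil-grown plants (day 1 pre-, day 8 post-emergence) kept at 24/16 °C, 14 h light.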

[2] = test system: Ipomoea hederacea (IPOHE); experiment: Pre-emergence herbicidal glasshouse test on Ipomoea hederacea; conditions: pre-emergence; 1000 g/h; evaluated after 13 days
In short: as §1

[3] = test system: Echinochloa crus-galli (ECHCG); experiment: Post-emergence herbicidal glasshouse test on Echinochloa crus-galli; conditions: post-emergence; 1000 g/h; evaluated after 13 days
In short: as §1

[4] = test system: Solanum nigrum (SOLNI); experiment: Post-emergence herbicidal glasshouse test on Solanum nigrum; conditions: post-emergence; 1000 g/h; evaluated after 13 days
In short: as §1

[5] = test system: Amaranthus retoflexus (AMARE); experiment: Post-emergence herbicidal glasshouse test on Amaranthus retoflexus; conditions: post-emergence; 1000 g/h; evaluated after 13 days
In short: as §1

[6] = test system: Echinochloa crus-galli (ECHCG); experiment: Pre-emergence herbicidal glasshouse test on Echinochloa crus-galli; conditions: pre-emergence; 1000 g/h; evaluated after 13 days
In short: as §1

[7] = test system: Solanum nigrum (SOLNI); experiment: Pre-emergence herbicidal glasshouse test on Solanum nigrum; conditions: pre-emergence; 1000 g/h; evaluated after 13 days
In short: as §1

[8] = test system: Setaria faberi (SETFA); experiment: Pre-emergence herbicidal glasshouse test on Setaria faberi; conditions: pre-emergence; 1000 g/h; evaluated after 13 days
In short: as §1

[9] = test system: Setaria faberi (SETFA); experiment: Post-emergence herbicidal glasshouse test on Setaria faberi; conditions: post-emergence; 1000 g/h; evaluated after 13 days
In short: as §1

[10] = test system: Ipomoea hederacea (IPOHE); experiment: Post-emergence herbicidal glasshouse test on Ipomoea hederacea; conditions: post-emergence; 1000 g/h; evaluated after 13 days
In short: as §1

[11] = test system: Amaranthus retoflexus (AMARE); experiment: Pre-emergence herbicidal glasshouse test on Amaranthus retoflexus; conditions: pre-emergence; 1000 g/h; evaluated after 13 days
In short: as §1

[12] = test system: Alopecurus myosuroides (ALOMY); experiment: Post-emergence herbicidal glasshouse test on Alopecurus myosuroides; conditions: post-emergence; 1000 g/h; evaluated after 13 days
In short: as §1

Compound	PRE Application ALOMY herbicidal damage (five point scale) [1]	PRE Application IPOHE herbicidal damage (five point scale) [2]	POST Application ECHCG herbicidal damage (five point scale) [3]	POST Application SOLNI herbicidal damage (five point scale) [4]	POST Application AMARE herbicidal damage (five point scale) [5]	PRE Application ECHCG herbicidal damage (five point scale) [6]	PRE Application SOLNI herbicidal damage (five point scale) [7]	PRE Application SETFA herbicidal damage (five point scale) [8]	POST Application SETFA herbicidal damage (five point scale) [9]	POST Application IPOHE herbicidal damage (five point scale) [10]	PRE Application AMARE herbicidal damage (five point scale) [11]	POST Application ALOMY herbicidal damage (five point scale) [12]
Cn1ncc(-c2ccc(Cl)cc2S(C)(=O)=O)c(O)c1=O [Compound 1.061]	5 (5=80-100% damage)	4 (4=60-79% damage)	5 (5=80-100% damage)	5 (5=80-100% damage)	5 (5=80-100% damage)	5 (5=80-100% damage)	5 (5=80-100% damage)	5 (5=80-100% damage)	5 (5=80-100% damage)	5 (5=80-100% damage)	5 (5=80-100% damage)	5 (5=80-100% damage)
C=Cc1ccccc1-c1c(C(F)(F)F)ccn(-c2cnn(C)c(=O)c2O)c1=O [Compound 7.034]	2 (2=20-39% damage)	1 (1=0-19% damage)	3 (3=40-59% damage)	5 (5=80-100% damage)	5 (5=80-100% damage)	1 (1=0-19% damage)	5 (5=80-100% damage)	1 (1=0-19% damage)	3 (3=40-59% damage)	2 (2=20-39% damage)	5 (5=80-100% damage)	1 (1=0-19% damage)
Cc1ccc(F)cc1-c1c(C(F)(F)F)ccn(-c2cnn(C)c(=O)c2O)c1=O [Compound 7.007]	5 (5=80-100% damage)	4 (4=60-79% damage)	5 (5=80-100% damage)	5 (5=80-100% damage)	5 (5=80-100% damage)	5 (5=80-100% damage)	5 (5=80-100% damage)	5 (5=80-100% damage)	5 (5=80-100% damage)	5 (5=80-100% damage)	5 (5=80-100% damage)	5 (5=80-100% damage)
CCCS(=O)(=O)Oc1c(-c2ccc(C(F)(F)F)cc2S(C)(=O)=O)cnn(C)c1=O [Compound 3.005, [2-methyl-5-[2-methylsulfonyl-4-(trifluoromethyl)phenyl]-3-oxo-pyridazin-4-yl]propane-1-sulfonate]	5 (5=80-100% damage)	4 (4=60-79% damage)	5 (5=80-100% damage)	5 (5=80-100% damage)	5 (5=80-100% damage)	5 (5=80-100% damage)	5 (5=80-100% damage)	5 (5=80-100% damage)	5 (5=80-100% damage)	5 (5=80-100% damage)	5 (5=80-100% damage)	5 (5=80-100% damage)
Cn1ncc(-c2c(Br)cccc2S(C)(=O)=O)c(O)c1=O [Compound 1.106]	1 (1=0-19% damage)	1 (1=0-19% damage)	4 (4=60-79% damage)	4 (4=60-79% damage)	5 (5=80-100% damage)	1 (1=0-19% damage)	1 (1=0-19% damage)	1 (1=0-19% damage)	2 (2=20-39% damage)	2 (2=20-39% damage)	4 (4=60-79% damage)	2 (2=20-39% damage)
Cn1ncc(-c2cnc(C(F)(F)F)nc2N2CCOCC2)c(O)c1=O [Compound 8.001, 4-hydroxy-2-methyl-5-[4-morpholino-2-(trifluoromethyl)pyrimidin-5-yl]pyridazin-3-one]	1 (1=0-19% damage)	3 (3=40-59% damage)	5 (5=80-100% damage)	5 (5=80-100% damage)	5 (5=80-100% damage)	5 (5=80-100% damage)	5 (5=80-100% damage)	2 (2=20-39% damage)	2 (2=20-39% damage)	5 (5=80-100% damage)	5 (5=80-100% damage)	1 (1=0-19% damage)
Cn1ncc(-c2ccc(S(C)(=O)=O)c(O)c2Cl)c(O)c1=O [Compound 1.108]	1 (1=0-19% damage)	1 (1=0-19% damage)	1 (1=0-19% damage)	3 (3=40-59% damage)	3 (3=40-59% damage)	1 (1=0-19% damage)	1 (1=0-19% damage)	1 (1=0-19% damage)	1 (1=0-19% damage)	1 (1=0-19% damage)	1 (1=0-19% damage)	1 (1=0-19% damage)
